Assay results from patent US20230126447A1, “OCULAR DRUG DEPOT FOR COMPLEMENT-MEDIATED DISORDERS” (priority 2020, published 2023).
Read-outs that look alike come from different tables or passages of the source.

Assay: Ocular tissue and plasma pharmacokinetics, 15 mg/kg single and BID oral, Dutch Belted rabbits (Example 3/5)
Type: in vivo
Description: Study design including group designation and dose levels are outlined in Table 4. […] Fifteen Dutch Belted and 5 New Zealand White rabbits were used as un-dosed controls. […] The dose volume was 5 mL/kg/dose for all groups. Safety was assessed with toxicological and ophthalmic examinations including slit lamp biomicroscopy, indirect ophthalmoscopy, rebound tonometry, and ultrasonic corneal pachymetry.
Analyst® software (Version 1.6.2) was used to capture the LC-MS/MS data and integrate the peak areas. Calibration standards and QCs were prepared in a blank solution of 75%:25% acetonitrile:water (v:v), ranging from 10 ng/mL to 10,000 ng/mL. Matrix matched standard and QC samples were prepared by mixing 2 μL of standard or QC sample above with 18 μL of appropriate ocular tissue or plasma. The final calibration standards ranged from 1 ng/mL to 1000 ng/mL. All plasma, retina, choroid-RPE, optic nerve, and vitreous humor samples were analyzed in a single run. Iris-ciliary body samples were analyzed in two runs due to a need for sample dilution. […] Dilution QCs were prepared at 5000 ng/mL where appropriate. Two sets of standards were used to bracket the analytical run at the beginning and end of the run. Three sets of QCs were included the analytical runs. All concentrations in ocular matrices are reported as ng/g based on the assumed density of 1 g/mL.
1, 6, 24, 96, 168, and 240 hours post-dose on Day 15, with the eyes collected at the same time as blood sampling. A single blood sample was taken from Groups 4 and 5 at sacrifice. Plasma, vitreous humor (VH), retina, choroid-retina pigmented epithelium (Choroid-RPE), optic nerve (ON), and iris-ciliary body (I-CB) were analyzed by LC-MS/MS to quantify test article concentrations. The lower limit of quantitation (LLOQ) in plasma and vitreous humor was 1.0 ng/mL. The LLOQ was 6.0 ng/g in retina, Choroid-RPE, and I-CB and the optic nerve LLOQ was 15 ng/g, assuming tissue density of 1 g/mL where relevant.
Study design including group designation and dose levels are outlined in Table 18.

[1] = Dutch Belted, rabbit, iris-ciliary body, po, 15 mg/kg, Iris-Ciliary Body, DB rabbit, 15 mg/kg BID, Day 15
[2] = Dutch Belted, rabbit, iris-ciliary body, po, 15 mg/kg, Iris-Ciliary Body, DB rabbit, 15 mg/kg single dose, Day 1
[3] = Dutch Belted, rabbit, vitreous humor, po, 15 mg/kg, Vitreous Humor, DB rabbit, 15 mg/kg BID, Day 15
[4] = Dutch Belted, rabbit, vitreous humor, po, 15 mg/kg, Vitreous Humor, DB rabbit, 15 mg/kg single dose, Day 1
[5] = plasma, DB rabbit, 15 mg/kg BID, Day 15
[6] = plasma, DB rabbit, 15 mg/kg single dose, Day 1
[7] = retina, DB rabbit, 15 mg/kg BID, Day 15
[8] = retina, DB rabbit, 15 mg/kg single dose, Day 1

## CC(=O)c1nn(CC(=O)N2C[C@H](F)C[C@H]2C(=O)Nc2cccc(Br)n2)c2ccc(-c3cnc(C)nc3)cc12 [Compound 1, (2S,4R)-1-(2-(3-Acetyl-5-(2-methylpyrimidin-5-yl)-1H-indazol-1-yl)acetyl)-N-(6-bromopyridin-2-yl)-4-fluoropyrrolidine-2-carboxamide]
Dutch Belted, rabbit, iris-ciliary body, po, 15 mg/kg, DB rabbit, 15 mg/kg BID oral, Day 15, 0 h, read-out: Mean Iris-Ciliary Body concentration
  concentration at 0 h: 2900 ng/g
Dutch Belted, rabbit, iris-ciliary body, po, 15 mg/kg, DB rabbit, 15 mg/kg BID oral, Day 15, 1 h, read-out: Mean Iris-Ciliary Body concentration
  concentration at 1 h: 4920 ng/g
Dutch Belted, rabbit, iris-ciliary body, po, 15 mg/kg, DB rabbit, 15 mg/kg BID oral, Day 15, 6 h, read-out: Mean Iris-Ciliary Body concentration
  concentration at 6 h: 3510 ng/g
Dutch Belted, rabbit, iris-ciliary body, po, 15 mg/kg, DB rabbit, 15 mg/kg BID oral, Day 15, 24 h, read-out: Mean Iris-Ciliary Body concentration
  concentration at 24 h: 1640 ng/g
Dutch Belted, rabbit, iris-ciliary body, po, 15 mg/kg, DB rabbit, 15 mg/kg BID oral, Day 15, 96 h, read-out: Mean Iris-Ciliary Body concentration
  concentration at 96 h: 1010 ng/g
Dutch Belted, rabbit, iris-ciliary body, po, 15 mg/kg, DB rabbit, 15 mg/kg BID oral, Day 15, 168 h, read-out: Mean Iris-Ciliary Body concentration
  concentration at 168 h: 612 ng/g
Dutch Belted, rabbit, iris-ciliary body, po, 15 mg/kg, DB rabbit, 15 mg/kg BID oral, Day 15, 240 h, read-out: Mean Iris-Ciliary Body concentration
  concentration at 240 h: 408 ng/g
Dutch Belted, rabbit, iris-ciliary body, po, 15 mg/kg, DB rabbit, 15 mg/kg single oral dose, Day 1, 1 h, read-out: Mean Iris-Ciliary Body concentration
  concentration at 1 h: 1010 ng/g
Dutch Belted, rabbit, iris-ciliary body, po, 15 mg/kg, DB rabbit, 15 mg/kg single oral dose, Day 1, 6 h, read-out: Mean Iris-Ciliary Body concentration
  concentration at 6 h: 528 ng/g
Dutch Belted, rabbit, iris-ciliary body, po, 15 mg/kg, DB rabbit, 15 mg/kg single oral dose, Day 1, 24 h, read-out: Mean Iris-Ciliary Body concentration
  concentration at 24 h: 300 ng/g
Dutch Belted, rabbit, iris-ciliary body, po, 15 mg/kg, DB rabbit, 15 mg/kg single oral dose, Day 1, 96 h, read-out: Mean Iris-Ciliary Body concentration
  concentration at 96 h: 57.9 ng/g
Dutch Belted, rabbit, iris-ciliary body, po, 15 mg/kg, DB rabbit, 15 mg/kg single oral dose, Day 1, 168 h, read-out: Mean Iris-Ciliary Body concentration
  concentration at 168 h: 27.1 ng/g
Dutch Belted, rabbit, iris-ciliary body, po, 15 mg/kg, DB rabbit, 15 mg/kg single oral dose, Day 1, 240 h, read-out: Mean Iris-Ciliary Body concentration
  concentration at 240 h: 33.6 ng/g
[1]
  MRT inf: 81.5 h
  MRT last: 76.2 h
  half-life: 107 h
Dutch Belted, rabbit, iris-ciliary body, po, 15 mg/kg, Iris-Ciliary Body, DB rabbit, 15 mg/kg BID, Day 15, read-out: Cmax
  Cmax: 4920 ng/g
[2]
  MRT inf: 69 h
  MRT last: 46.2 h
  half-life: 56 h
Dutch Belted, rabbit, iris-ciliary body, po, 15 mg/kg, Iris-Ciliary Body, DB rabbit, 15 mg/kg single dose, Day 1, read-out: Cmax
  Cmax: 1010 ng/g
Dutch Belted, rabbit, plasma, po, 15 mg/kg, DB rabbit, 15 mg/kg BID oral, Day 15, 0 h, read-out: Mean plasma concentration
  concentration at 0 h: 55.2 ng/mL
Dutch Belted, rabbit, plasma, po, 15 mg/kg, DB rabbit, 15 mg/kg BID oral, Day 15, 1 h, read-out: Mean plasma concentration
  concentration at 1 h: 845 ng/mL
Dutch Belted, rabbit, plasma, po, 15 mg/kg, DB rabbit, 15 mg/kg BID oral, Day 15, 6 h, read-out: Mean plasma concentration
  concentration at 6 h: 92.2 ng/mL
Dutch Belted, rabbit, plasma, po, 15 mg/kg, DB rabbit, 15 mg/kg BID oral, Day 15, 24 h, read-out: Mean plasma concentration
  concentration at 24 h: 5.6 ng/mL
Dutch Belted, rabbit, plasma, po, 15 mg/kg, DB rabbit, 15 mg/kg BID oral, Day 15, 96 h, read-out: Mean plasma concentration
  concentration at 96 h: 3.19 ng/mL
Dutch Belted, rabbit, plasma, po, 15 mg/kg, DB rabbit, 15 mg/kg single oral dose, Day 1, 1 h, read-out: Mean plasma concentration
  concentration at 1 h: 318 ng/mL
Dutch Belted, rabbit, plasma, po, 15 mg/kg, DB rabbit, 15 mg/kg single oral dose, Day 1, 6 h, read-out: Mean plasma concentration
  concentration at 6 h: 33.7 ng/mL
Dutch Belted, rabbit, plasma, po, 15 mg/kg, DB rabbit, 15 mg/kg single oral dose, Day 1, 24 h, read-out: Mean plasma concentration
  concentration at 24 h: 25.4 ng/mL
Dutch Belted, rabbit, retina, oral, 15 mg/kg, DB rabbits, Day 1, 15 mg/kg single dose, 1 hr, read-out: Mean Retina Concentration
  concentration at 1 h: 145 ng/g
Dutch Belted, rabbit, retina, oral, 15 mg/kg, DB rabbits, Day 1, 15 mg/kg single dose, 6 hr, read-out: Mean Retina Concentration
  concentration at 6 h: 29.6 ng/g
Dutch Belted, rabbit, retina, oral, 15 mg/kg, DB rabbits, Day 1, 15 mg/kg single dose, 24 hr, read-out: Mean Retina Concentration
  concentration at 24 h: 24.7 ng/g
Dutch Belted, rabbit, retina, oral, 15 mg/kg, DB rabbits, Day 15, 15 mg/kg BID, 0 hr, read-out: Mean Retina Concentration
  concentration at 0 h: 114 ng/g
Dutch Belted, rabbit, retina, oral, 15 mg/kg, DB rabbits, Day 15, 15 mg/kg BID, 1 hr, read-out: Mean Retina Concentration
  concentration at 1 h: 576 ng/g
Dutch Belted, rabbit, retina, oral, 15 mg/kg, DB rabbits, Day 15, 15 mg/kg BID, 6 hr, read-out: Mean Retina Concentration
  concentration at 6 h: 237 ng/g
Dutch Belted, rabbit, retina, oral, 15 mg/kg, DB rabbits, Day 15, 15 mg/kg BID, 24 hr, read-out: Mean Retina Concentration
  concentration at 24 h: 74.3 ng/g
Dutch Belted, rabbit, retina, oral, 15 mg/kg, DB rabbits, Day 15, 15 mg/kg BID, 96 hr, read-out: Mean Retina Concentration
  concentration at 96 h: 28.1 ng/g
Dutch Belted, rabbit, retina, oral, 15 mg/kg, DB rabbits, Day 15, 15 mg/kg BID, 168 hr, read-out: Mean Retina Concentration
  concentration at 168 h: 36.5 ng/g
Dutch Belted, rabbit, retina, oral, 15 mg/kg, DB rabbits, Day 15, 15 mg/kg BID, 240 hr, read-out: Mean Retina Concentration
  concentration at 240 h: 25.3 ng/g
Dutch Belted, rabbit, retina, po, 15 mg/kg, DB rabbit, 15 mg/kg BID oral, Day 15, 0 h, read-out: Mean retina concentration
  concentration at 0 h: 114 ng/g
Dutch Belted, rabbit, retina, po, 15 mg/kg, DB rabbit, 15 mg/kg BID oral, Day 15, 1 h, read-out: Mean retina concentration
  concentration at 1 h: 576 ng/g
Dutch Belted, rabbit, retina, po, 15 mg/kg, DB rabbit, 15 mg/kg BID oral, Day 15, 6 h, read-out: Mean retina concentration
  concentration at 6 h: 237 ng/g
Dutch Belted, rabbit, retina, po, 15 mg/kg, DB rabbit, 15 mg/kg BID oral, Day 15, 24 h, read-out: Mean retina concentration
  concentration at 24 h: 74.3 ng/g
Dutch Belted, rabbit, retina, po, 15 mg/kg, DB rabbit, 15 mg/kg BID oral, Day 15, 96 h, read-out: Mean retina concentration
  concentration at 96 h: 28.1 ng/g
Dutch Belted, rabbit, retina, po, 15 mg/kg, DB rabbit, 15 mg/kg BID oral, Day 15, 168 h, read-out: Mean retina concentration
  concentration at 168 h: 36.5 ng/g
Dutch Belted, rabbit, retina, po, 15 mg/kg, DB rabbit, 15 mg/kg BID oral, Day 15, 240 h, read-out: Mean retina concentration
  concentration at 240 h: 25.3 ng/g
Dutch Belted, rabbit, retina, po, 15 mg/kg, DB rabbit, 15 mg/kg single oral dose, Day 1, 1 h, read-out: Mean retina concentration
  concentration at 1 h: 145 ng/g
Dutch Belted, rabbit, retina, po, 15 mg/kg, DB rabbit, 15 mg/kg single oral dose, Day 1, 6 h, read-out: Mean retina concentration
  concentration at 6 h: 29.6 ng/g
Dutch Belted, rabbit, retina, po, 15 mg/kg, DB rabbit, 15 mg/kg single oral dose, Day 1, 24 h, read-out: Mean retina concentration
  concentration at 24 h: 24.7 ng/g
Dutch Belted, rabbit, retina, po, 15 mg/kg, retina, DB rabbit, 15 mg/kg BID, Day 15
  MRT last: 71 h
Dutch Belted, rabbit, vitreous humor, po, 15 mg/kg, DB rabbit, 15 mg/kg BID oral, Day 15, 0 h, read-out: Mean Vitreous Humor concentration
  concentration at 0 h: 3.27 ng/mL
Dutch Belted, rabbit, vitreous humor, po, 15 mg/kg, DB rabbit, 15 mg/kg BID oral, Day 15, 1 h, read-out: Mean Vitreous Humor concentration
  concentration at 1 h: 15.4 ng/mL
Dutch Belted, rabbit, vitreous humor, po, 15 mg/kg, DB rabbit, 15 mg/kg BID oral, Day 15, 6 h, read-out: Mean Vitreous Humor concentration
  concentration at 6 h: 6.45 ng/mL
Dutch Belted, rabbit, vitreous humor, po, 15 mg/kg, DB rabbit, 15 mg/kg single oral dose, Day 1, 1 h, read-out: Mean Vitreous Humor concentration
  concentration at 1 h: 7.26 ng/mL
Dutch Belted, rabbit, vitreous humor, po, 15 mg/kg, DB rabbit, 15 mg/kg single oral dose, Day 1, 6 h, read-out: Mean Vitreous Humor concentration
  concentration at 6 h: 3.66 ng/mL
[3]
  AUC(0-t): 64 ng·h/mL
  MRT last: 2.23 h
Dutch Belted, rabbit, vitreous humor, po, 15 mg/kg, Vitreous Humor, DB rabbit, 15 mg/kg BID, Day 15, read-out: Cmax
  Cmax: 15.4 ng/mL
[4]
  AUC(0-t): 30.9 ng·h/mL
  MRT last: 2.48 h
Dutch Belted, rabbit, vitreous humor, po, 15 mg/kg, Vitreous Humor, DB rabbit, 15 mg/kg single dose, Day 1, read-out: Cmax
  Cmax: 7.26 ng/mL
Iris-Ciliary Body, DB rabbit, 15 mg/kg BID, Day 15
  Tlast: 240 h
Iris-Ciliary Body, DB rabbit, 15 mg/kg single dose, Day 1
  Tlast: 240 h
Vitreous Humor, DB rabbit, 15 mg/kg BID, Day 15
  Tlast: 6 h
Vitreous Humor, DB rabbit, 15 mg/kg single dose, Day 1
  Tlast: 6 h
[5]
  AUClast: 3990 ng·h/mL
  Cmax: 845 ng/mL
  MRTlast: 6.51 h
  Tlast: 96 h
[6]
  AUClast: 1570 ng·h/mL
  Cmax: 318 ng/mL
  MRTlast: 5.58 h
  Tlast: 24 h
rabbit, 15 mg/kg BID
  C-RPE drug concentration at least 10 days following the last oral administration: 340 ng/mL
[7]
  Cmax: 576 ng/m
  Tlast: 240 h
[8]
  Cmax: 145 ng/m
  MRTlast: 7.83 h
  Tlast: 24 h
